Test results from publication PMC4806491, “The milk-derived fusion peptide, ACFP, suppresses the growth of primary human ovarian cancer cells by regulating apoptotic gene expression and signaling pathways” (BMC Cancer, 2016).
Values after ≈ are worked out from the molar mass of the structure shown. “Also recorded” adds a separate entry of the source. Like-named read-outs stand apart in the source and are kept apart here. Positions of bridges follow the written chain, without caps; N, C: chain ends. Residues, ends and D or L forms follow the SMILES beside them.

How the values were obtained:
[1] = stability in pH 7 water; type: physicochemical; settings: n=3, Figure S2
[2] = test system: primary ovarian cancer cells; experiment: Real time PCR of bcl-xl, bax, akt, caspase-3, CDC25C and cyclinB1 mRNA; type: cell-based, human; settings: increasing concentration, 48 h, 2^-ΔΔCt, β-actin reference, 12 patients
Source text: An optimized RT-PCR protocol was employed to analyze the mRNA levels of bcl-xl, bax, akt, caspase-3, CDC25C and cyclinB1. Beta-actin was used as a housekeeping gene. According to primer sequences of bcl-xl, bax, akt, caspase-3, CDC25C, cyclinB1 and β-actin genes retrieved from Primer-Bank, primers were designed with the Primer 5.0 software, which were synthesized by Shanghai Sangon Biological Engineering Technology. These primer sequences are as follows: • bcl-xl forward 5′-[…]-3′, • bcl-xl reverse 5′-[…]-3′; • bax forward 5′-[…]-3′, • bax reverse 5′-[…]-3′; • akt forward 5′-[…]-3′, • akt reverse 5′-[…]-3′; • caspase-3 forward 5′-[…]-3′, • caspase-3 reverse 5′[…]-3′; • CDC25C forward 5′-[…]-3′, • CDC25C reverse 5′-[…]-3′; • cyclinB1 forward 5′-[…]-3′, • cyclinB1 reverse 5′-[…]-3′; • β-actin forward 5′-[…]-3′, • β-actin reverse 5′-[…]-3′.
Primary ovarian cancer cells were harvested after ACFP treatment at different doses and times, respectively. The total RNAs in the primary ovarian cancer cells were extracted according to the Trizol kit manufacturer’s instructions, and the purity and concentration were determined by ultraviolet spectrophotometry. […]
Real time PCR adopts TaKaRa SYBR Green as real time PCR Master Mix in ABI7500 fluorescent real-time PCR instrument. […] Finally, the relative mRNA expression of all samples were calculated using the 2^-ΔΔCt method. […]

[3] = oil (octanol)/water partition coefficient; type: physicochemical; settings: pH 7, preliminary experiments
[4] = test system: primary ovarian cancer cells; type: cell-based, human
Method: Fresh primary ovarian tumor tissues that were assessed and classified as serous ovarian adenocarcinoma (III-IV grade) according to WHO criteria were collected from 53 ovarian cancer patients who underwent initial debulking surgery at the first affiliated hospital of Anhui Medical University between June 2012 and June 2014. All patients had not received adjuvant therapies, such as chemotherapy or radiotherapy, prior to surgery. For comparison, normal ovarian glandular epithelium cells (NOGECs) were cultured from fresh primary normal ovarian tissues harvested from 7 patients with uterine fibromas, which were confirmed as negative for any neoplastic disease by pathological examination. Prior to tissue deposition, all patients signed written consent forms confirming their donation of tissue for research purposes according to the Declaration of Helsinki. This study was approved by the Anhui Medical University Review Board. Tumor or normal ovarian tissues were cut into small 1.0 mm^3 pieces, rinsed two times in phosphate buffered saline (PBS) and digested with 0.25 % trypsin in a sterile centrifuge tube at 37 °C for 30 min. To obtain a single cell suspension cell, digested tissues were filtered with a 100 μm cell strainer. Cells were collected by centrifugation at 1000 rpm for five minutes, and the cell pellet was re-suspended in Dulbecco’s modified eagle medium (DMEM) supplemented with 10 % fetal bovine serum (FBS). Cells were subsequently cultured in DMEM containing 0.1 mg/L epidermal growth factor (EGF), 0.1 mg/L insulin-like growth factor (IGF) and 0.1 mg/L beta-estradiol with 10 % FBS in 5 % CO2 at 37 °C. Once cells reached 70 to 80 % confluence, cell culture medium was drained from the flask, and cells were digested with 0.25 % collagenase II until approximately 1/3 of the cells fell to the bottom of the dish by eye using a microscope. Due to their initial shedding, most fibroblasts were eliminated by collagenase digestion. The remaining cells were cultured in 5 % CO2 at 37 °C. To determine purity, cells were analyzed using immunofluorescence of cytokeratin 7 (for ovarian cancer cells) or cytokeratin 19 (for normal ovarian epithelium cells).
Primary ovarian cancer cells were seeded into 96-well plates in sextuplicate at a starting density of 5 × 10^3 cells/well and incubated with ACFP at the concentrations: 0 (as control), 5 × 10^−6, 5 × 10^−5, 5 × 10^−4, 5 × 10^−3, 5 × 10^−2, 5 × 10^−1 and 5 g/L for 24, 48 and 72 h, respectively. Cells treated with paclitaxel at 5 × 10^−4 g/L were included in the same plate as a positive control. Cell viability was later measured using the WST-1 (water-soluble tetrazolium 1) cell viability and cytotoxicity assay kit (Beyotime, Haimen, China) according to the manufacturer’s instructions. The percent viability of cells was calculated using the formula to calculate the cell viability ratio (VR): VR (%) = (the experimental group A450nm value/control group A450nm value) × 100 %. To assess general toxicity of ACFP, viability of normal ovarian cells treated with ACFP was assayed using the same procedure. The effect of ACFP was compared with LfcinB and PGPIPN (the products of Shanghai Sangon Biological Engineering Technology, China). Each experiment was performed in two independent sets.

CC[C@H](C)[C@@H]1NC(=O)[C@H](CO)NC(=O)[C@@H]2CCCN2C(=O)[C@H](C)NC(=O)CNC(=O)[C@H](CC(C)C)NC(=O)[C@H](CCCCN)NC(=O)[C@H](CCCCN)NC(=O)[C@H](CCSC)NC(=O)[C@H](CCCNC(=N)N)NC(=O)[C@H](Cc2c[nH]c3ccccc23)NC(=O)[C@H](CCC(N)=O)NC(=O)[C@H](Cc2c[nH]c3ccccc23)NC(=O)[C@H](CCCNC(=N)N)NC(=O)[C@H](CCCNC(=N)N)NC(=O)[C@@H](NC(=O)[C@H](CCCCN)NC(=O)[C@@H](N)Cc2ccccc2)CSSC[C@@H](C(=O)N[C@H](C(=O)N[C@@H](CCCNC(=N)N)C(=O)N[C@@H](CCCNC(=N)N)C(=O)N[C@@H](C)C(=O)N[C@@H](Cc2ccccc2)C(=O)NCC(=O)NCC(=O)NCC(=O)NCC(=O)N[C@@H](CO)C(=O)N2CCC[C@H]2C(=O)NCC(=O)N2CCC[C@H]2C(=O)N[C@H](C(=O)N2CCC[C@H]2C(=O)N[C@@H](CC(N)=O)C(=O)O)[C@@H](C)CC)C(C)C)NC(=O)[C@H]([C@@H](C)O)NC1=O [ACFP] (H-FKCRRWQWRMKKLGAPSITCVRRAFGGGGSPGPIPN-OH; disulfide 3-20; N-terminus and C-terminus assumed)
stability [1]: very stable; also recorded: good stability
mRNA expression of bax and caspase-3 [2]: gradual increase
mRNA expression of bcl-xl, akt, CDC25C and cyclinB1 [2]: gradually decreased
logD [3]: -0.91
IC50, cell viability ([4]; 24 h): 11.5 µg/mL (≈ 2.86 µM)
IC50, cell viability ([4]; 48 h): 1.63 µg/mL (≈ 0.406 µM)
IC50, cell viability ([4]; 72 h): 0.388 µg/mL (≈ 0.0966 µM)
growth of human primary ovarian cells ([4]; different concentrations, 48 h, in vitro, n=12, Figure S1): decreased growth
